Patent US11566007B2, “Ras inhibitors” (Revolution Medicines, Inc., priority 2019, dated 2023)
Where “and” joins values, the source holds several entries; their conditions need not be identical. Equal entries are not always repeated.

Tests used:
[1] = tested on: NCI-H358 (K-Ras G12C); assay: CellTiter-Glo cell viability assay, NCI-H358; type: cell-based, human; conditions: Homo sapiens, NCI-H358, 120 h, NCI-H358, 5-day treatment; class symbols; read-out: Additional H358 Cell Viability assay data (K-Ras G12C, IC50)
How it was run: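 Cells seeded, compound added directly, 5-day exposure. Plates to RT ~30 min, CellTiter-Glo luminescence read. Normalized to DMSO avg (x100); 4-parameter logistic fit.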

[2] = target: KRAS WT (Homo sapiens (Human), UniProt P01116+P62937); assay: Ras-Raf (BRAF RBD) disruption / FRET / MOA assay, KRAS WT; type: biochemical; conditions: read-out: IC50* KRAS WT FRET data
How it was run: (§1)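 Compounds, top final concentration 30 μM in 10-point 3-fold series, incubated 3 hours at 25° C with nucleotide-loaded Ras, cyclophilin A and BRAF RBD.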

[3] = target: K-Ras G12C (Homo sapiens (Human), UniProt P01116+P62937, G12C); assay: Ras-Raf (BRAF RBD) disruption / FRET / MOA assay, KRAS G12C; type: biochemical; conditions: KRAS G12C; Ras-Raf disruption/FRET/MOA assay; read-out: IC50* KRAS G12C FRET data
How it was run: as §1

[4] = target: NRAS WT (Homo sapiens (Human), UniProt P01111+P62937); assay: Ras-Raf (BRAF RBD) disruption / FRET / MOA assay, NRAS WT; type: biochemical; conditions: read-out: IC50* NRAS WT FRET data
How it was run: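 TR-FRET disruption of nucleotide-loaded Ras binding to BRAF RBD via compound-driven ternary complex with cyclophilin A. Compound as 10-point 3-fold series from 30 μM final, 3 h at 25° C, then anti-His Eu-W1024 (10 nM) and anti-GST allophycocyanin (50 nM) for 1.5 h. IC50 from decreased FRET ratio versus DMSO.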

[5] = target: K-Ras G13C (Homo sapiens (Human), UniProt P01116+P62937, G13C); assay: Ras-Raf (BRAF RBD) disruption / FRET / MOA assay, KRAS G13C; type: biochemical; conditions: KRAS G13C; Ras-Raf disruption/FRET/MOA assay; read-out: IC50* KRAS G13C FRET data
How it was run: as §1

[6] = target: KRAS G12S (Homo sapiens (Human), UniProt P01116+P62937, G12S); assay: Ras-Raf (BRAF RBD) disruption / FRET / MOA assay, KRAS G12S; type: biochemical; conditions: Ras-Raf disruption/FRET/MOA assay; class symbols; read-out: KRAS G12S FRET data IC50
How it was run: as §1

[7] = target: KRAS G13D (Homo sapiens (Human), UniProt P01116+P62937, G13D); assay: Ras-Raf (BRAF RBD) disruption / FRET / MOA assay, KRAS G13D; type: biochemical; conditions: read-out: IC50* KRAS G13D FRET data
How it was run: as §1

[8] = target: KRAS G12V (Homo sapiens (Human), UniProt P01116+P62937, G12V); assay: Ras-Raf (BRAF RBD) disruption / FRET / MOA assay, KRAS G12V; type: biochemical; conditions: read-out: IC50* KRAS G12V FRET data
How it was run: as §1

K-Ras G13C, sequence (P01116-2 other isoform, or with tags, fused parts or gaps G13C): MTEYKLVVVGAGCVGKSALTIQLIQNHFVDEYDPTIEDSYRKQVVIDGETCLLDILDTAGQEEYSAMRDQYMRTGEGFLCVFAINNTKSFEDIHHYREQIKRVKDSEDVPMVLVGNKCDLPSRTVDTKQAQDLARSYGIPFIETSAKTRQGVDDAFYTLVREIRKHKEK
K-Ras G13C, sequence (P62937 whole entry): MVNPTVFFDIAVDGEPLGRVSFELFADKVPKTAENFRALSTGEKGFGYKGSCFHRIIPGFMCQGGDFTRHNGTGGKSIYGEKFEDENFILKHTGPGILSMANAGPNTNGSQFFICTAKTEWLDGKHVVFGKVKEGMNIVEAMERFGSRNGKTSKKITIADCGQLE
KRAS WT, sequence (P01116-2 other isoform, or with tags, fused parts or gaps): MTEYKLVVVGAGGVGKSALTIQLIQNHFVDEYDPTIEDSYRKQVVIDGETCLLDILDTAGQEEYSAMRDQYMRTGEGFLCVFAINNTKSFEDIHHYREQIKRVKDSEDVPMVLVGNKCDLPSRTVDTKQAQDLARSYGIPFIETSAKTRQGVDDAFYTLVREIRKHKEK
KRAS WT, sequence (P62937 whole entry): as the sequence (P62937 whole entry) above
K-Ras G12C, sequence (P01116-2 other isoform, or with tags, fused parts or gaps G12C): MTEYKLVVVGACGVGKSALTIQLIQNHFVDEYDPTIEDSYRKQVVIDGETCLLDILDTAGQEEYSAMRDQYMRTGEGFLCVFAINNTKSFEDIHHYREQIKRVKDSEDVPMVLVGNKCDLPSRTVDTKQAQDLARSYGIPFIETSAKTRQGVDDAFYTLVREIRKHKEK
K-Ras G12C, sequence (P62937 whole entry): as the sequence (P62937 whole entry) above
KRAS G12V, sequence (P01116-2 other isoform, or with tags, fused parts or gaps G12V): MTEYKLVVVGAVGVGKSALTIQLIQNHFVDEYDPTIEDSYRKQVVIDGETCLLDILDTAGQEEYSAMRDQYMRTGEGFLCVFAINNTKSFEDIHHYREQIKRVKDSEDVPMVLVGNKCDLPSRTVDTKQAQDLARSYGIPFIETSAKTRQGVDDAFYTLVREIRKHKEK
KRAS G12V, sequence (P62937 whole entry): as the sequence (P62937 whole entry) above
NRAS WT, sequence (P01111 whole entry): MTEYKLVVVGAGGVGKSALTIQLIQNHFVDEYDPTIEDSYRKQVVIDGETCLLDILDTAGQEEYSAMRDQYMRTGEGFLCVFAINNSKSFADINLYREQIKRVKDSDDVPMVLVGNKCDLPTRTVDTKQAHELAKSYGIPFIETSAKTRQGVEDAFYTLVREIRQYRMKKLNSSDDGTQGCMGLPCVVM
NRAS WT, sequence (P62937 whole entry): as the sequence (P62937 whole entry) above
KRAS G12S, sequence (P01116-2 other isoform, or with tags, fused parts or gaps G12S): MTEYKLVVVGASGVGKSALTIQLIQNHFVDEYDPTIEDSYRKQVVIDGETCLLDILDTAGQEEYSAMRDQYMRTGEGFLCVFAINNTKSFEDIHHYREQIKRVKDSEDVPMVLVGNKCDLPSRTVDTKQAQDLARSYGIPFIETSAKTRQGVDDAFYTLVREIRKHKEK
KRAS G12S, sequence (P62937 whole entry): as the sequence (P62937 whole entry) above
KRAS G13D, sequence (P01116-2 other isoform, or with tags, fused parts or gaps G13D): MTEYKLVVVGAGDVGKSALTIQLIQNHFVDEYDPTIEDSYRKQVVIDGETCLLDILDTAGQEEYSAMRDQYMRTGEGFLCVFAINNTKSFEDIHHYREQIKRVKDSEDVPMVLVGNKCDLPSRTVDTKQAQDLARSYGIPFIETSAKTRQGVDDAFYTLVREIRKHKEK
KRAS G13D, sequence (P62937 whole entry): as the sequence (P62937 whole entry) above

Row | Compound | IC50 [1] | IC50 [2] | IC50 [3] | IC50 [4] | IC50 [5] | IC50 [6] | IC50 [7] | IC50 [8]
1 | C=CC(=O)N1CCN(C(=O)N(C)[C@H](C(=O)N[C@H]2Cc3nc(cs3)-c3ccc4c(c3)c(c(-c3cccnc3[C@H](C)OC)n4CC)CC(C)(C)COC(=O)[C@@H]3CCCN(N3)C2=O)C(C)C)[C@H]2C[C@H]21 (atropisomer, axis not shown) [Example A737] | 10 to 100 nM | 10 to 100 nM | 10 to 100 nM | 10 to 100 nM | 10 to 100 nM | 100 to 1000 nM | 100 to 1000 nM | 100 to 1000 nM
2 | CC#CC(=O)N1CC(N(C)C(=O)N(C)[C@H](C(=O)N[C@H]2Cc3nc(cs3)-c3ccc4c(c3)c(c(-c3cccnc3[C@H](C)OC)n4CC)CC(C)(C)COC(=O)[C@@H]3CCCN(N3)C2=O)C(C)C)C1 (atropisomer, axis not shown) [Example A731] | 100 to 1000 nM | 100 to 1000 nM | 100 to 1000 nM | 100 to 1000 nM | 100 to 1000 nM | 100 to 1000 nM | 1000 to 10000 nM | 1000 to 10000 nM
3 | C=C(OC)C(=O)N1CC(N(C)C(=O)N(C)[C@H](C(=O)N[C@H]2Cc3nc(cs3)-c3ccc4c(c3)c(c(-c3cccnc3[C@H](C)OC)n4CC)CC(C)(C)COC(=O)[C@@H]3CCCN(N3)C2=O)C(C)C)C1 (atropisomer, axis not shown) [Example A713] | 10 to 100 nM | 100 to 1000 nM | 100 to 1000 nM | 100 to 1000 nM | 1000 to 10000 nM | 100 to 1000 nM | 1000 to 10000 nM | 1000 to 10000 nM
4 | C=CC(=O)N1CC[C@H](C(=O)N(C)[C@H](C(=O)N[C@H]2Cc3cc(O)cc(c3)-c3ccc4c(c3)c(c(-c3cccc(=O)n3C(C)C)n4CC)CC(C)(C)COC(=O)[C@@H]3CCCN(N3)C2=O)C(C)C)C1 [Example A151] | 100 to 1000 nM | > 10000 nM | 100 to 1000 nM | 1000 to 10000 nM | > 10000 nM | 1000 to 10000 nM | > 10000 nM | 1000 to 10000 nM
5 | CCn1c(-c2cccnc2[C@H](C)OC)c2c3cc(ccc31)-c1csc(n1)C[C@H](NC(=O)[C@H](C(C)C)N(C)C(=O)N1CCCOC13CN(C(=O)C#CC(C)(C)N(C)C)C3)C(=O)N1CCC[C@H](N1)C(=O)OCC(C)(C)C2 (atropisomer, axis not shown) [Example A666] | 10 to 100 nM | > 10000 nM | 1000 to 10000 nM | > 10000 nM | > 10000 nM | > 10000 nM | > 10000 nM | > 10000 nM
6 | C=CC(=O)N1CC[C@]2(C1)CN(C(=O)N(C)[C@H](C(=O)N[C@H]1Cc3nc(cs3)-c3ccc4c(c3)c(c(-c3cccnc3[C@H](C)OC)n4CC)CC(C)(C)COC(=O)[C@@H]3CCCN(N3)C1=O)C(C)C)CCO2 (atropisomer, axis not shown) [Example A354] | 10 to 100 nM | 100 to 1000 nM | 100 to 1000 nM | 100 to 1000 nM | 100 to 1000 nM | 100 to 1000 nM | 100 to 1000 nM | 100 to 1000 nM
7 | C=CC(=O)N(C)C[C@@H]1CCN1C(=O)N(C)[C@H](C(=O)N[C@H]1Cc2nc(cs2)-c2ccc3c(c2)c(c(-c2cccnc2[C@H](C)OC)n3CC)CC(C)(C)COC(=O)[C@@H]2CCCN(N2)C1=O)C(C)C (atropisomer, axis not shown) [Example A390] | 100 to 1000 nM | 1000 to 10000 nM | 100 to 1000 nM | 1000 to 10000 nM | 100 to 1000 nM | 1000 to 10000 nM | 1000 to 10000 nM | 1000 to 10000 nM
8 | CCn1c(-c2cccnc2[C@H](C)OC)c2c3cc(ccc31)-c1csc(n1)C[C@H](NC(=O)[C@H](C(C)C)N(C)C(=O)N1C[C@@H]3CN(C(=O)C#CC(C)(C)N(C)C)CC[C@@H]31)C(=O)N1CCC[C@H](N1)C(=O)OCC(C)(C)C2 (atropisomer, axis not shown) [Example A625] | 10 to 100 nM | 100 to 1000 nM | 100 to 1000 nM | 100 to 1000 nM | 100 to 1000 nM | 100 to 1000 nM | 1000 to 10000 nM | 100 to 1000 nM
9 | CCn1c(-c2cccnc2[C@H](C)OC)c2c3cc(ccc31)-c1csc(n1)C[C@H](NC(=O)C[C@@H](C)OC1CN(C(=O)C#CC(C)(C)N(C)C)C1)C(=O)N1CCC[C@H](N1)C(=O)OCC(C)(C)C2 (atropisomer, axis not shown) [Example A638] | 10 to 100 nM | 1000 to 10000 nM | < 10 nM | 1000 to 10000 nM | 1000 to 10000 nM | 1000 to 10000 nM | 1000 to 10000 nM | 1000 to 10000 nM
10 | C=CC(=O)N1CC[C@H](C(=O)N(C)[C@H](C(=O)N[C@H]2Cc3cc(O)cc(c3)-c3ccc4c(c3)c(c(-c3cccnc3[C@H](CC)OC)n4CC)CC(C)(C)COC(=O)[C@@H]3CCCN(N3)C2=O)C(C)C)C1 (atropisomer, axis not shown) [Example A181] | 10 to 100 nM | 100 to 1000 nM and 1000 to 10000 nM | 10 to 100 nM and 100 to 1000 nM | 100 to 1000 nM | 100 to 1000 nM and 1000 to 10000 nM | 1000 to 10000 nM and 10 to 100 nM | 100 to 1000 nM and 1000 to 10000 nM | 100 to 1000 nM and 1000 to 10000 nM
11 | C=CC(=O)N1CC[C@H](C(=O)N(C)[C@H](C(=O)N[C@H]2Cc3cccc(c3)-c3ccc4c(c3)c(c(-c3cccnc3[C@H](C)OC)n4CC)CC(C)(C)COC(=O)[C@@H]3CCCN(N3)C2=O)C(C)C)[C@H]1C (atropisomer, axis not shown) [Example A373] | 10 to 100 nM | 1000 to 10000 nM | 100 to 1000 nM | 1000 to 10000 nM | 100 to 1000 nM | 1000 to 10000 nM | 1000 to 10000 nM | 100 to 1000 nM
12 | C=CC(=O)N1CCC[C@]12CCN(C(=O)N(C)[C@H](C(=O)N[C@H]1Cc3nc(cs3)-c3ccc4c(c3)c(c(-c3cccnc3[C@H](C)OC)n4CC)CC(C)(C)COC(=O)[C@@H]3CCCN(N3)C1=O)C(C)C)C2 (atropisomer, axis not shown) [Example A548] | 100 to 1000 nM | 100 to 1000 nM | 100 to 1000 nM | 100 to 1000 nM | 1000 to 10000 nM | 100 to 1000 nM | 1000 to 10000 nM | 100 to 1000 nM
13 | C=CC(=O)N1CC[C@]2(C1)OCN([C@H](C(=O)N[C@H]1Cc3cc(cc(C(F)F)c3)-c3ccc4c(c3)c(c(-c3cccnc3[C@H](C)OC)n4CC)CC(C)(C)COC(=O)[C@@H]3CCCN(N3)C1=O)C(C)C)C2=O (atropisomer, axis not shown) [Example A557] | 100 to 1000 nM | 100 to 1000 nM | 100 to 1000 nM | 100 to 1000 nM | 100 to 1000 nM | 100 to 1000 nM | 1000 to 10000 nM | 1000 to 10000 nM
14 | CCn1c(-c2cccnc2[C@H](C)OC)c2c3cc(ccc31)-c1csc(n1)C[C@H](NC(=O)[C@H](C(C)C)N(C)C(=O)N1CCC13CN(C(=O)/C=C/CN(C)C)C3)C(=O)N1CCC[C@H](N1)C(=O)OCC(C)(C)C2 (atropisomer, axis not shown) [Example A598] | 10 to 100 nM | 10 to 100 nM | 10 to 100 nM | 10 to 100 nM | 100 to 1000 nM | 10 to 100 nM | 100 to 1000 nM | 100 to 1000 nM
15 | C=CC(=O)N1CC[C@H](C(=O)N(C)[C@H](C(=O)N[C@H]2Cc3nc(n(C)n3)-c3ccc4c(c3)c(c(-c3cccnc3[C@H](C)OC)n4CC)CC(C)(C)COC(=O)[C@@H]3CCCN(N3)C2=O)C(C)C)C1 (atropisomer, axis not shown) [Example A314] | 100 to 1000 nM | 1000 to 10000 nM | 100 to 1000 nM | 1000 to 10000 nM | 100 to 1000 nM | 1000 to 10000 nM | 1000 to 10000 nM | 1000 to 10000 nM
